ChEMBL document CHEMBL1201862, “PubChem BioAssay data set” (2004)
Active and inactive are the calls of the source.

How the values were obtained:
Caspase-3 = biological target: T1, Caspase-3 (Homo sapiens, UniProt P42574); format: functional;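 note: Dose-response selectivity test against caspase-3 for candidate inhibitors of sentrin-specific proteases (SENPs)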
T1 sequence (P42574 whole entry): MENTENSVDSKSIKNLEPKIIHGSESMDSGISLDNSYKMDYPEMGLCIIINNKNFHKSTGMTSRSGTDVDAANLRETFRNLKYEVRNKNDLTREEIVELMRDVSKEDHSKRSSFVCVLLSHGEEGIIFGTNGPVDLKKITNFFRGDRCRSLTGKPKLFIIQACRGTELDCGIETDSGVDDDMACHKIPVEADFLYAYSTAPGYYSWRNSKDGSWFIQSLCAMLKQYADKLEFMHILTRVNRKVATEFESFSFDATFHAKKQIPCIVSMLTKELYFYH

[1] = biological target: T2, Sentrin-specific protease 7 (Homo sapiens, UniProt Q9BQF6); format: functional;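 note: Luminescence-based dose-response confirmation of ultra-high-throughput screening hits, measuring inhibition of SENP7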
T2 sequence (Q9BQF6 whole entry): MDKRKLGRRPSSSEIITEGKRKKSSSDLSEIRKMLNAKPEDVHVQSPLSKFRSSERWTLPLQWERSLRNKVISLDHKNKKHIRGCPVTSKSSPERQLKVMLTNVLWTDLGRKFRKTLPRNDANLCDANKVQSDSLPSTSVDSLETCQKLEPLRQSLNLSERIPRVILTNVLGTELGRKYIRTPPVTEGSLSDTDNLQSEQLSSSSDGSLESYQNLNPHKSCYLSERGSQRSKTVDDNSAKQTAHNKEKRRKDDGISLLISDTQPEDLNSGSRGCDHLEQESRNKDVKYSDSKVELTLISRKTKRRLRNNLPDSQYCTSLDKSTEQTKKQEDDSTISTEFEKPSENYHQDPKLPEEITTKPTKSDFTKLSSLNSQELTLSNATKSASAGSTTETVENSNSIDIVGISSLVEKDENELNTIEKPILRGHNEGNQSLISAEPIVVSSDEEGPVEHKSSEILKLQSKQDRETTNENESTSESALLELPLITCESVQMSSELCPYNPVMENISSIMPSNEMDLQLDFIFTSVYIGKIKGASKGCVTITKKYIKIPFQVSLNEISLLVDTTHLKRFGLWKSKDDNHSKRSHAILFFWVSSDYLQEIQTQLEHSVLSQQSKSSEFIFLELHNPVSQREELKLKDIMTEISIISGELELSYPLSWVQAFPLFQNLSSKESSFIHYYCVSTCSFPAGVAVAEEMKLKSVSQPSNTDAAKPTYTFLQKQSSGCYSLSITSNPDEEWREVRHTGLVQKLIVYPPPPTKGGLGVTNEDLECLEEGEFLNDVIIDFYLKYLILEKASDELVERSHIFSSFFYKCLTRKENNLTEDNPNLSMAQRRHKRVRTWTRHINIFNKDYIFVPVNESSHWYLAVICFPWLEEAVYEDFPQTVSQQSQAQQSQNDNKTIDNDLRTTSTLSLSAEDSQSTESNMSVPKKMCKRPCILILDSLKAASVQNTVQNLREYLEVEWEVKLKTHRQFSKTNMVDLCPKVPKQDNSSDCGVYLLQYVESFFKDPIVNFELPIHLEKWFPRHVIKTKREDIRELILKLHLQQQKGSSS

[2] = biological target: T3, Sentrin-specific protease 8 (Homo sapiens, UniProt Q96LD8); format: functional;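 note: luminescence read-out of SENP8 inhibition, dose-response confirmation following an ultra-high-throughput screen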
T3 sequence (Q96LD8 whole entry): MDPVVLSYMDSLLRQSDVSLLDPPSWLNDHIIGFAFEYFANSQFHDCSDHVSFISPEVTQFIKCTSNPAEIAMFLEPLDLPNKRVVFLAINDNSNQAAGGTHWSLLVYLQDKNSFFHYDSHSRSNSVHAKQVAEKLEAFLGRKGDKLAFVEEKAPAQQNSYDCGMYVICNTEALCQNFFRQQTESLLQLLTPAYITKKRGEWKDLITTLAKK

[3] = biological target: T4, Sentrin-specific protease 6 (Homo sapiens, UniProt Q9GZR1); format: functional;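 note: Luminescence-based dose-response confirmatory assay of SENP6 inhibition, following up an ultra-high-throughput screen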
T4 sequence (Q9GZR1 whole entry): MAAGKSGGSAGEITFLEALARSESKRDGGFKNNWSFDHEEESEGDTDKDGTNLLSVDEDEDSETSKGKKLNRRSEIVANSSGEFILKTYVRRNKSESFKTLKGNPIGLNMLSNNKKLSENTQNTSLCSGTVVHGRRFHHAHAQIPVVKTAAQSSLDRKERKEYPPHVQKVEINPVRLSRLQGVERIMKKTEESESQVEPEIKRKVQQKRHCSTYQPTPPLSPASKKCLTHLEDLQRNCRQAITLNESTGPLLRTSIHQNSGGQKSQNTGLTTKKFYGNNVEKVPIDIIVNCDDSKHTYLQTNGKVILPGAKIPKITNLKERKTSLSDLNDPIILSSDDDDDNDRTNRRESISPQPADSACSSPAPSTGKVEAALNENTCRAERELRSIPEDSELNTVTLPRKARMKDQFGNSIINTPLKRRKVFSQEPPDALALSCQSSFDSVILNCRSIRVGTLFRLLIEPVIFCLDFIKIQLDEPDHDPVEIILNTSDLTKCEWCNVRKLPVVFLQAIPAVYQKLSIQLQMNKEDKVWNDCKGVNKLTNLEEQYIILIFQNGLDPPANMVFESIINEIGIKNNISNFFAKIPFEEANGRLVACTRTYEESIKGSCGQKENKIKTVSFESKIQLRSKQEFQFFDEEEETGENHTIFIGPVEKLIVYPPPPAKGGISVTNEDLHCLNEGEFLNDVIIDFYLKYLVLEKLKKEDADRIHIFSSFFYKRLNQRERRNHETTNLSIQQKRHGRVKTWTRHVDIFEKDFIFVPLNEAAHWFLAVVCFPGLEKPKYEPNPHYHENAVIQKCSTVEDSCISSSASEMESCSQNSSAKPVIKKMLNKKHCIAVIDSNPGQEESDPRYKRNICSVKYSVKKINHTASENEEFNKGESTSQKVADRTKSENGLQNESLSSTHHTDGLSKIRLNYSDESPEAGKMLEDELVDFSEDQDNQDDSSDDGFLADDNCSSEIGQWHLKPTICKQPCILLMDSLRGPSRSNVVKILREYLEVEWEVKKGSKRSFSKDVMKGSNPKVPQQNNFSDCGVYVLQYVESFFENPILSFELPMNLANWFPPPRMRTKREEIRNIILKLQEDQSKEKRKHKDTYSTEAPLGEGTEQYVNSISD

[4] = biological target: T5, Endoribonuclease toxin MazF (Escherichia coli K-12, UniProt P0AE70); experiment: MazF toxin RNase activators, dose response, biochemical, fluorescence, single-stranded RNA substrate, uHTS hits (AID 588481); format: functional
T5 sequence (P0AE70 whole entry): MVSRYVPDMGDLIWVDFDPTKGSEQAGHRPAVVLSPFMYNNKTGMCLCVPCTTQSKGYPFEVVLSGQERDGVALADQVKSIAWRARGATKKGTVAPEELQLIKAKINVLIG

[5] = biological target: T5, Endoribonuclease toxin MazF; experiment: fluorescent RNA oligo signal without MazF, dose response, counter-screen for MazEF activator project, biochemical, fluorescence, single-stranded RNase substrate (AID 588502); format: functional
[6] = microbe, parasite or virus in culture; format: functional; details: Mycobacterium tuberculosis
Cytochrome P450 2C9 = Cytochrome P450 2C9 (Homo sapiens, UniProt P11712)
Protein RecA = biological target: T6, Protein RecA (Mycobacterium tuberculosis, UniProt P9WHJ3); experiment: Fluorescence Cell-Free Homogeneous Dose Retest to Identify Inhibitors of RecA-Intein Splicing Activity. [Related pubchem assays (depositor defined):AID2097, AID2223, AID489010, AID492950]; format: functional
T6 sequence (P9WHJ3 whole entry): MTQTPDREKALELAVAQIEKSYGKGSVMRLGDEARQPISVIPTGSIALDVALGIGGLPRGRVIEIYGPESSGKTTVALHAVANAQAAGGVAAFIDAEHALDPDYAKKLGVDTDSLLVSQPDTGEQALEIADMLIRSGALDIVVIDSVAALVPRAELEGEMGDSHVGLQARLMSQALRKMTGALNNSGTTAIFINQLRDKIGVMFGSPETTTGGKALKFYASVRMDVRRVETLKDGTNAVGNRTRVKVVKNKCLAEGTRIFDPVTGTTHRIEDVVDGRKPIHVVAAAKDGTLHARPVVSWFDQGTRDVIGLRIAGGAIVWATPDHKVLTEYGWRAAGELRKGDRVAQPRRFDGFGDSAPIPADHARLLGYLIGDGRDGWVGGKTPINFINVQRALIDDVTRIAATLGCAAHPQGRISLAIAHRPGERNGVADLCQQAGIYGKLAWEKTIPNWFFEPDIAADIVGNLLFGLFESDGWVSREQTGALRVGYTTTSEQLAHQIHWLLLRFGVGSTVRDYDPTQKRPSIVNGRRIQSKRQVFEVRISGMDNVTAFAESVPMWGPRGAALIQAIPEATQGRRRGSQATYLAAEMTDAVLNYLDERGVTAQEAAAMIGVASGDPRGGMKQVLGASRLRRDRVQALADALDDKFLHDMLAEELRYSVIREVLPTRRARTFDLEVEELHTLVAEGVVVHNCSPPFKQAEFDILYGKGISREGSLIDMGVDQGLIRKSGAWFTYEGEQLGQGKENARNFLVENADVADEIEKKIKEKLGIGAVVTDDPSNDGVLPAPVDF

Cytochrome P450 2D6 = Cytochrome P450 2D6 (Homo sapiens, UniProt P10635);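 note: CYP2D6 member of a cytochrome P450 panel assay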
[7] = biological target: T7, Replicative DNA helicase DnaB (Mycobacterium tuberculosis, UniProt P9WMR3); experiment: DnaB intein splicing inhibitors, dose response, biochemical, cell-free fluorescence (AID 449749); format: functional
T7 sequence (P9WMR3 whole entry): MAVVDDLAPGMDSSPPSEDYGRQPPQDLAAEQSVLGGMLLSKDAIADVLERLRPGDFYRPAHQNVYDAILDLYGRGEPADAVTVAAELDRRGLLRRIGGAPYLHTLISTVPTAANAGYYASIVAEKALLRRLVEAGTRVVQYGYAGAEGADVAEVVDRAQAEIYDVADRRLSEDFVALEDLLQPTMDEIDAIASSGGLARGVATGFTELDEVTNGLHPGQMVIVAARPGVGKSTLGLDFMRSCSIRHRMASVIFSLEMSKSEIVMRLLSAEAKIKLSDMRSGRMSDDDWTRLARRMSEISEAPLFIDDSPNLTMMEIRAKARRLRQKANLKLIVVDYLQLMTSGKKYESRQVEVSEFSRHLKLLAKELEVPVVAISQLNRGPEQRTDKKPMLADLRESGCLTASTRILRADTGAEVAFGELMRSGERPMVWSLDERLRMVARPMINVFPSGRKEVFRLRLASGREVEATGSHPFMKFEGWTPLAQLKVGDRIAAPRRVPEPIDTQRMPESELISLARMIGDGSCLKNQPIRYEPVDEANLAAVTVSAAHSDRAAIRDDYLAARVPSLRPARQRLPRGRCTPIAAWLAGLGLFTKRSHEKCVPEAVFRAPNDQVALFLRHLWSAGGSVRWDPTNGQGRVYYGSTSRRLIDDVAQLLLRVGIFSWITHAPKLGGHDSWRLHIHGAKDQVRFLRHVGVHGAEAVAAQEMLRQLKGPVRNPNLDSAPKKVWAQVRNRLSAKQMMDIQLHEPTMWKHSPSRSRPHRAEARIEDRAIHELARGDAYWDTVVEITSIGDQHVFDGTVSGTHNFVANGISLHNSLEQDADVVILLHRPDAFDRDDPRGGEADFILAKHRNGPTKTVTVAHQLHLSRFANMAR

Sequence of Cytochrome P450 2D6 (P10635 whole entry): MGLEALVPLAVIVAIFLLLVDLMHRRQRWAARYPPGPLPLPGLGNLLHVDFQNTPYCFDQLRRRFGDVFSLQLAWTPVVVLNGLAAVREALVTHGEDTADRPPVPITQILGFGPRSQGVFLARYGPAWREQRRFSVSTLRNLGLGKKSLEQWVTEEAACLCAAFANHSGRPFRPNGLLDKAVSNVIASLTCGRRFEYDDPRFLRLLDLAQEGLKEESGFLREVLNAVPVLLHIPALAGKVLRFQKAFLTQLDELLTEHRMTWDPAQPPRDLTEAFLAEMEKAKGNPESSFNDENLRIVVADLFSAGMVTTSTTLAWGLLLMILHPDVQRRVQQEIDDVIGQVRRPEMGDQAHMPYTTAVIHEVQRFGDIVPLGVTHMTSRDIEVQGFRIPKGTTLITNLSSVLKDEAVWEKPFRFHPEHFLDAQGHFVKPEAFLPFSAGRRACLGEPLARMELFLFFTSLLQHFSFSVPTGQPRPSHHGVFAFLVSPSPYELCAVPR
Sequence of Cytochrome P450 2C9 (P11712 whole entry): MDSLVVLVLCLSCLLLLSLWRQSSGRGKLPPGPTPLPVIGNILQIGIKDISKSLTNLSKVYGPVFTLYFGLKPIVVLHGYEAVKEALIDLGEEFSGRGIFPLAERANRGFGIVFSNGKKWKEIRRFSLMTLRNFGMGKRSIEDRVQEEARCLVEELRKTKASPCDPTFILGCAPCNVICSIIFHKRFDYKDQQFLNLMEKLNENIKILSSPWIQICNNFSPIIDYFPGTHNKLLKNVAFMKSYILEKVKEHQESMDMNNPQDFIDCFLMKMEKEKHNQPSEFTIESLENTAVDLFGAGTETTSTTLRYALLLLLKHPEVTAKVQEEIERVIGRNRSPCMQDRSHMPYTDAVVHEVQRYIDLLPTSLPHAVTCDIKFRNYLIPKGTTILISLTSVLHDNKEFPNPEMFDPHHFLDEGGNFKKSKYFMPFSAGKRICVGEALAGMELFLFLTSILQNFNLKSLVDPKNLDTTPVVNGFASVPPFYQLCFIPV

Structure (SMILES): Cc1cccc(-c2noc(C3CCCCC3)n2)c1
- IC50 (Caspase-3): 32 µM (active)
- IC50 [1]: 11.3 µM (active)
- IC50 [2]: > 100 µM (inactive)
- IC50 [3]: 40.1 µM (active)

Structure (SMILES): COC(=O)Cn1c2ccc(OC)cc2c2nc3ccccc3nc21
- EC50 [4]: > 99 µM (inactive)
- EC50 [5]: > 99 µM (inactive)

Structure (SMILES): Nc1c2c(nc3sc4c(c13)CCCCC4)CCCC2
- IC50 (Caspase-3): 18.4 µM (active)
- IC50 [1]: 10.3 µM (active)
- CC50 [6]: 18 µM (active)
- IC50 [2]: 32.8 µM (active)
- IC50 [3]: 33.7 µM (active)

Structure (SMILES): CCC(CC)C(=O)NCc1ccc2c(c1)cc(C)n2C
- AC50 (Cytochrome P450 2C9): inconclusive
- EC50 (Protein RecA): > 380 µM (inactive)
- AC50 (Cytochrome P450 2D6): 31.6 µM (inconclusive)
- AC50 [7]: > 380 µM (inactive)

Structure (SMILES): CCCNC(=O)Cn1c(=O)/c(=C/c2ccc(-c3cccc([N+](=O)[O-])c3)o2)s/c1=C\C(=O)C(C)(C)C
- EC50 [4]: > 99 µM (inactive)
- EC50 [5]: > 99 µM (inactive)

Structure (SMILES): CCCCN1CC(=O)N2[C@H]3c4cc(C)ccc4OC[C@@H]3[C@H](c3ccccc3)[C@]2(C)C1=O
- EC50 [4]: > 99 µM (inactive)
- EC50 [5]: 24 µM (inactive)

Structure (SMILES): Cc1ccc2c(Cl)c(C(=O)N/N=C/c3cccn3C)sc2c1
- EC50 [4]: > 99 µM (inactive)
- EC50 [5]: > 99 µM (inactive)
